# Experimental data from US20260158017A1, “KIF18A INHIBITOR” (WIGEN BIOMEDICINE TECHNOLOGY (SHANGHAI) CO., LTD., priority 2021, published 2026).
# Molecular target: T1, Recombinant human KIF18A (1-467His-tagged) protein (Homo sapiens, UniProt Q8NI77)
# T1 construct: Recombinant human KIF18A (1-467His-tagged) protein; His; made in house
# Assay: KIF18A enzyme assay (microtubule-stimulated ATPase activity, ADP-Glo)
# Assay type: biochemical
# Conditions: 30 nM KIF18A, 75 μM ATP, 30 μg/mL pig microtubules; read-out: Inhibitory activity against KIF18A IC50
# Method in brief: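 Buffer 15 mM Tris pH 7.5, 10 mM MgCl2, 0.01% Pluronic F-68, 1 μM paclitaxel, 30 μg/mL pig microtubules; reactions at room temperature. IC50 from inhibition relative to DMSO.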
# T1 sequence (Q8NI77 1-467): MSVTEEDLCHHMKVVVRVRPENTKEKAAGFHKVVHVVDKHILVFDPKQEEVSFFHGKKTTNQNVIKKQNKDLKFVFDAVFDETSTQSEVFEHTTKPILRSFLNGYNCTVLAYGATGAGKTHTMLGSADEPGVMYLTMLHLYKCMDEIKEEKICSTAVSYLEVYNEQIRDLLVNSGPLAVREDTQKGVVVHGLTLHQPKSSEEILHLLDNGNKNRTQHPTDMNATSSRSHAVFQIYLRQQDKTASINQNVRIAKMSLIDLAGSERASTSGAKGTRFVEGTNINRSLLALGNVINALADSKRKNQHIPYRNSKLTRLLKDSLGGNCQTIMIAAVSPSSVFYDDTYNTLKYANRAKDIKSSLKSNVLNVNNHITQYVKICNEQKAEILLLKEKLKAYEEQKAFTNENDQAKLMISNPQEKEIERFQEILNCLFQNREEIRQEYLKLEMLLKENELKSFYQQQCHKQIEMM
# T1 sequence (P02550 whole entry partner): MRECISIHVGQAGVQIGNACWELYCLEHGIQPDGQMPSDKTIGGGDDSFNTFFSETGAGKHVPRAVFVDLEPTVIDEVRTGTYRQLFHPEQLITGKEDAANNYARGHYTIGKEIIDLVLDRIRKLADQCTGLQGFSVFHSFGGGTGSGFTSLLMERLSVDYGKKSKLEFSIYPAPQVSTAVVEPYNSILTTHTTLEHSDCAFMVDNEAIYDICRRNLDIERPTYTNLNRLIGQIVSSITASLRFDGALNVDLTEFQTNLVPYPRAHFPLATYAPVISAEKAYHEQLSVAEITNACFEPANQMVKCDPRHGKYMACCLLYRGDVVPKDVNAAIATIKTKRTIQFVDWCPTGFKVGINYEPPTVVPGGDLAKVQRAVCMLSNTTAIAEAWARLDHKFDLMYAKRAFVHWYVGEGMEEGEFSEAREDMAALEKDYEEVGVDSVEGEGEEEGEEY
# T1 sequence (P02554 whole entry partner): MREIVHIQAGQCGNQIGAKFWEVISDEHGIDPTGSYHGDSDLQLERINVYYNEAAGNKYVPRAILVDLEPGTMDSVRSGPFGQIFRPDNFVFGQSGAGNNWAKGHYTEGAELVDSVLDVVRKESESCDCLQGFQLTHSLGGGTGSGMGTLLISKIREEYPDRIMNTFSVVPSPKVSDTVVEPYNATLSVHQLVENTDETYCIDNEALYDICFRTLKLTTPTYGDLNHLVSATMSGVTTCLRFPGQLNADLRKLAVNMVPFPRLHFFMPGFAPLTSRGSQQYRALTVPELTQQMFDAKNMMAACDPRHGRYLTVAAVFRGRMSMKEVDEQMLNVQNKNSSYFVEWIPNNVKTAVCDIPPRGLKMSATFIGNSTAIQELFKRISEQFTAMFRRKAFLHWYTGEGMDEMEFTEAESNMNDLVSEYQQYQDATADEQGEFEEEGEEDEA
row,IC50 [µM],SMILES
1,≤ 0.1,C[C@H](CO)NS(=O)(=O)c1ccc(C(=O)Nc2ccc([N+](=O)[O-])c(N3CCO[C@H](C)C3)c2)c(N2CCC3(CC2)CC3)c1 [Compound 32]
2,≤ 0.1,C[C@@H]1CN(c2nc(C(=O)Nc3ccc(NS(=O)(=O)CCO)cc3N3CCC4(CC3)CC4)ccc2[N+](=O)[O-])CCO1 [Compound 162]
3,0.1 to 0.5,C[C@H](CO)NS(=O)(=O)c1ccc(NC(=O)c2ccc([N+](=O)[O-])c(N3CCO[C@H](C)C3)c2)c(N2CCC3(CC2)CC3)c1 [Compound 64]
4,≤ 0.1,O=C(Nc1ccc(OCF)c(N2CC(F)(F)C2)c1)c1cnc(NS(=O)(=O)CCO)cc1N1CCC2(CC1)CC2 [Compound 452]
5,≤ 0.1,CC1(F)CCN(c2nc(NC(=O)c3cnc(S(=O)(=O)NCCO)cc3N3CCC4(CC3)CC4)ccc2[N+](=O)[O-])C1 (centres unmarked) [Compound 152]
6,≤ 0.1,CSc1ccc(NC(=O)c2cnc(NS(=O)(=O)CCO)cc2N2CCC3(CC2)CC3)cc1N1CCO[C@H](C)C1 [Compound 610]
7,≤ 0.1,O=C(Nc1cnc(NS(=O)(=O)CCO)cc1N1CCC2(CC1)CC2)c1ccc([N+](=O)[O-])c(N2CC(F)(F)C2)n1 [Compound 228]
8,≤ 0.1,C[C@@H]1CN(c2nc(C(=O)Nc3ccc(NS(=O)(=O)[C@H](C)CO)cc3N3CCC4(CC3)CC4)ccc2OCF)CCO1 [Compound 560]
9,≤ 0.1,COc1ccc(NC(=O)c2cnc(NS(=O)(=O)CCO)cc2N2CCC3(CC2)CC3)nc1N1CCC(C)(F)C1 (centres unmarked) [Compound 296]
10,≤ 0.1,O=C(Nc1cnc(NS(=O)(=O)CCO)cc1N1CCC2(CC1)CC2)c1ccc([N+](=O)[O-])c(N2CC3CC3C2)n1 (centres unmarked) [Compound 234]
11,≤ 0.1,O=C(Nc1ccc(OCF)c(N2CC(F)(F)C2)c1)c1cnc(S(=O)(=O)NCCO)cc1N1CCC2(CC1)CC2 [Compound 468]
12,≤ 0.1,C[C@@H]1CN(c2nc(NC(=O)c3ccc(NS(=O)(=O)[C@@H](C)CO)cc3N3CCC4(CC3)CC4)ccc2OCF)CCO1 [Compound 431]
13,≤ 0.1,CC1(F)CCN(c2nc(NC(=O)c3cnc(NS(=O)(=O)CCO)cc3N3CCC4(CC3)CC4)ccc2OCF)C1 (centres unmarked) [Compound 488]
14,≤ 0.1,O=C(Nc1ccc([N+](=O)[O-])c(N2CCC(F)(F)CC2)c1)c1cnc(S(=O)(=O)NCCO)cc1N1CCC2(CC1)CC2 [Compound 113]
15,≤ 0.1,CSc1ccc(NC(=O)c2cnc(NS(=O)(=O)[C@H](C)CO)cc2N2CCC3(CC2)CC3)nc1N1CCO[C@H](C)C1 [Compound 640]
16,≤ 0.1,C[C@@H](CO)S(=O)(=O)Nc1ccc(C(=O)Nc2ccc(OCF)c(N3CCC(F)(F)CC3)c2)c(N2CCC3(CC2)CC3)c1 [Compound 397]
17,≤ 0.1,CSc1ccc(NC(=O)c2ccc(NS(=O)(=O)CCO)cc2N2CCC3(CC2)CC3)nc1OC1CCC1 [Compound 599]
18,≤ 0.1,CSc1ccc(NC(=O)c2cnc(NS(=O)(=O)CCO)cc2N2CCC3(CC2)CC3)nc1N1CCC2(CC2)C1 [Compound 630]
19,0.1 to 0.5,C[C@H](CO)NS(=O)(=O)c1ccc(NC(=O)c2ccc([N+](=O)[O-])c(N3CCO[C@H](C)C3)n2)c(N2CCC3(CC2)CC3)c1 [Compound 192]
20,≤ 0.1,C[C@@H]1CN(c2cc(NC(=O)c3cnc(NS(=O)(=O)[C@H](C)CO)cc3N3CCC4(CC3)CC4)ccc2[N+](=O)[O-])CCO1 [Compound 112]
21,≤ 0.1,O=C(Nc1ccc(NS(=O)(=O)CCO)cc1N1CCC2(CC1)CC2)c1ccc([N+](=O)[O-])c(OC2CCC2)n1 [Compound 167]
22,≤ 0.1,CSc1ccc(NC(=O)c2cnc(NS(=O)(=O)CCO)cc2N2CCC3(CC2)CC3)nc1N1CC2CC2C1 (centres unmarked) [Compound 634]
23,≤ 0.1,COc1ccc(NC(=O)c2ccc(NS(=O)(=O)CCO)cc2N2CCC3(CC2)CC3)nc1N1CC2CC2C1 (centres unmarked) [Compound 266]
24,≤ 0.1,COc1ccc(NC(=O)c2ccc(S(=O)(=O)N[C@H](C)CO)cc2N2CCC3(CC2)CC3)nc1N1CCC(F)(F)CC1 [Compound 286]
25,0.1 to 0.5,CC(C)(CO)Nc1nc(C(=O)Nc2ccc(S(=O)(=O)NCCO)cc2N2CCC3(CC2)CC3)ccc1OCF [Compound 571]
26,≤ 0.1,O=C(Nc1ccc(NS(=O)(=O)CCO)cc1N1CCC2(CC1)CC2)c1ccc(OCF)c(N2CCC(F)(F)CC2)c1 [Compound 513]
27,≤ 0.1,O=C(Nc1ccc(OCF)c(N2CCC(F)CC2)n1)c1cnc(NS(=O)(=O)CCO)cc1N1CCC2(CC1)CC2 [Compound 489]
28,0.1 to 0.5,O=C(Nc1ccc(S(=O)(=O)NCCO)cc1N1CCC2(CC1)CC2)c1ccc(OCF)c(N2CCC3(CC3)C2)n1 [Compound 566]

# More lines, now with the values behind:
row,SMILES,IC50 [µM]
1,O=C(Nc1ccc(S(=O)(=O)NCCO)cc1N1CCC2(CC1)CC2)c1ccc([N+](=O)[O-])c(OC2CCC2)n1 [Compound 183],0.1 to 0.5
2,O=C(Nc1cnc(NS(=O)(=O)CCO)cc1N1CCC2(CC1)CC2)c1ccc([N+](=O)[O-])c(N2CCC(F)(F)CC2)n1 [Compound 225],≤ 0.1
3,C[C@@H]1CN(c2nc(NC(=O)c3cnc(NS(=O)(=O)CCO)cc3N3CCC4(CC3)CC4)ccc2OCF)CCO1 [Compound 482],≤ 0.1
4,C[C@@H]1CN(c2cc(NC(=O)c3cnc(NS(=O)(=O)CCO)cc3N3CCC4(CC3)CC4)ccc2OCF)CCO1 [Compound 450],≤ 0.1
5,COc1ccc(NC(=O)c2ccc(S(=O)(=O)NCCO)cc2N2CCC3(CC2)CC3)nc1N1CCO[C@H](C)C1 [Compound 274],≤ 0.1
6,CC(C)(CO)Nc1nc(NC(=O)c2cnc(NS(=O)(=O)CCO)cc2N2CCC3(CC2)CC3)ccc1[N+](=O)[O-] [Compound 139],≤ 0.1
7,COc1ccc(NC(=O)c2cnc(S(=O)(=O)NCCO)cc2N2CCC3(CC2)CC3)nc1N1CCC(C)(F)C1 (centres unmarked) [Compound 312],≤ 0.1
8,C[C@@H](CO)S(=O)(=O)Nc1ccc(C(=O)Nc2ccc(OCF)c(N3CCC(F)(F)CC3)n2)c(N2CCC3(CC2)CC3)c1 [Compound 429],≤ 0.1
9,C[C@@H]1CN(c2nc(NC(=O)c3cnc(NS(=O)(=O)[C@@H](C)CO)cc3N3CCC4(CC3)CC4)ccc2OCF)CCO1 [Compound 495],≤ 0.1
10,CC1(F)CCN(c2cc(C(=O)Nc3ccc(S(=O)(=O)NCCO)cc3N3CCC4(CC3)CC4)ccc2OCF)C1 (centres unmarked) [Compound 536],0.1 to 0.5
11,O=C(Nc1ccc([N+](=O)[O-])c(N2CCC(F)CC2)n1)c1ccc(S(=O)(=O)NCCO)cc1N1CCC2(CC1)CC2 [Compound 89],≤ 0.1
12,O=C(Nc1ccc(OCF)c(OC2CCC2)n1)c1ccc(S(=O)(=O)NCCO)cc1N1CCC2(CC1)CC2 [Compound 439],≤ 0.1
13,C[C@@H]1CN(c2nc(NC(=O)c3cnc(S(=O)(=O)N[C@@H](C)CO)cc3N3CCC4(CC3)CC4)ccc2[N+](=O)[O-])CCO1 [Compound 159],≤ 0.1
14,C[C@@H]1CN(c2cc(C(=O)Nc3ccc(NS(=O)(=O)[C@H](C)CO)cc3N3CCC4(CC3)CC4)ccc2[N+](=O)[O-])CCO1 [Compound 48],0.1 to 0.5
15,C[C@H](CO)S(=O)(=O)Nc1ccc(C(=O)Nc2ccc(OCF)c(N3CCC(F)(F)CC3)c2)c(N2CCC3(CC2)CC3)c1 [Compound 398],≤ 0.1
16,O=C(Nc1cnc(S(=O)(=O)NCCO)cc1N1CCC2(CC1)CC2)c1ccc([N+](=O)[O-])c(OC2CCC2)n1 [Compound 247],0.1 to 0.5
17,O=C(Nc1ccc([N+](=O)[O-])c(N2CC(F)(F)C2)c1)c1cnc(S(=O)(=O)NCCO)cc1N1CCC2(CC1)CC2 [Compound 116],≤ 0.1

row,SMILES,IC50 [µM]
1,C[C@@H]1CN(c2cc(NC(=O)c3cnc(S(=O)(=O)NCCO)cc3N3CCC4(CC3)CC4)ccc2OCF)CCO1 [Compound 402],≤ 0.1
2,O=C(Nc1cnc(S(=O)(=O)NCCO)cc1N1CCC2(CC1)CC2)c1ccc([N+](=O)[O-])c(OC2CCC2)c1 [Compound 215],0.1 to 0.5
3,C[C@H](CO)NS(=O)(=O)c1ccc(C(=O)Nc2ccc([N+](=O)[O-])c(N3CCC(F)(F)CC3)c2)c(N2CCC3(CC2)CC3)c1 [Compound 30],≤ 0.1
4,O=C(Nc1cnc(NS(=O)(=O)CCO)cc1N1CCC2(CC1)CC2)c1ccc([N+](=O)[O-])c(N2CCC(F)CC2)n1 [Compound 233],≤ 0.1
5,CSc1ccc(NC(=O)c2ccc(NS(=O)(=O)CCO)cc2N2CCC3(CC2)CC3)nc1N1CCO[C@@H](C)C1 [Compound 595],≤ 0.1
6,O=C(Nc1ccc([N+](=O)[O-])c(N2CCC3(CC3)C2)c1)c1cnc(S(=O)(=O)NCCO)cc1N1CCC2(CC1)CC2 [Compound 118],≤ 0.1
7,O=C(Nc1ccc(S(=O)(=O)NCCO)cc1N1CCC2(CC1)CC2)c1ccc([N+](=O)[O-])c(N2CCC(F)CC2)n1 [Compound 185],0.1 to 0.5
8,CC(C)(CO)Nc1cc(C(=O)Nc2ccc(NS(=O)(=O)CCO)cc2N2CCC3(CC2)CC3)ccc1[N+](=O)[O-] [Compound 43],≤ 0.1
9,O=C(Nc1ccc(S(=O)(=O)NCCO)cc1N1CCC2(CC1)CC2)c1ccc(OCF)c(OCCC(F)(F)F)c1 [Compound 533],0.1 to 0.5
10,COc1ccc(NC(=O)c2ccc(S(=O)(=O)NCCO)cc2N2CCC3(CC2)CC3)nc1OCCC(F)(F)F [Compound 277],≤ 0.1
11,C[C@@H](CO)NS(=O)(=O)c1ccc(C(=O)Nc2ccc(OCF)c(N3CCC(F)(F)CC3)n2)c(N2CCC3(CC2)CC3)c1 [Compound 445],≤ 0.1
12,O=C(Nc1ccc([N+](=O)[O-])c(N2CC3CC3C2)c1)c1cnc(S(=O)(=O)NCCO)cc1N1CCC2(CC1)CC2 (centres unmarked) [Compound 122],≤ 0.1
13,O=C(Nc1ccc([N+](=O)[O-])c(N2CCC(F)(F)CC2)n1)c1cnc(S(=O)(=O)NCCO)cc1N1CCC2(CC1)CC2 [Compound 145],≤ 0.1
14,C[C@H](CO)NS(=O)(=O)c1cc(N2CCC3(CC2)CC3)c(C(=O)Nc2ccc(OCF)c(N3CCC(F)(F)CC3)c2)cn1 [Compound 478],≤ 0.1
15,O=C(Nc1ccc(OCF)c(OC2CCC2)n1)c1cnc(NS(=O)(=O)CCO)cc1N1CCC2(CC1)CC2 [Compound 487],≤ 0.1
16,CSc1ccc(NC(=O)c2ccc(NS(=O)(=O)CCO)cc2N2CCC3(CC2)CC3)cc1N1CCC(C)(F)C1 (centres unmarked) [Compound 584],≤ 0.1
17,COc1ccc(NC(=O)c2ccc(S(=O)(=O)NCCO)cc2N2CCC3(CC2)CC3)nc1N1CCC(C)(F)C1 (centres unmarked) [Compound 280],≤ 0.1
